Assay: xn = mol fraction of the nth substance listed
Details: 100 kPa, Liquid; for viscosity: Concentric cylinders viscometry; for speed of sound: Frequency=200 MHz, Sing-around technique in a fixed-path interferometer; for mass density: Vibrating tube method

CC(CC(C)(C)C)CC(C)(C)CC(C)(C)C (stereo not given) [2,2,4,4,6,8,8-heptamethylnonane] + CC(CC(C)(C)C)CC(C)(C)C
Details | mass density [kg/m3] | speed of sound [m/s] | viscosity [mPa·s]
293.15 K, x1 = 0.0772 | 749.05 | 1211.7 | 1.43
293.15 K, x1 = 0.1584 | 752.89 | 1219.4 | 1.55
293.15 K, x1 = 0.2439 | 756.76 | 1226.7 | 1.7
293.15 K, x1 = 0.334 | 760.65 | 1234.8 | 1.87
293.15 K, x1 = 0.4293 | 764.68 | 1242.9 | 2.08
293.15 K, x1 = 0.5302 | 768.56 | 1251.1 | 2.29
293.15 K, x1 = 0.6371 | 772.47 | 1259.6 | 2.56
293.15 K, x1 = 0.7506 | 776.56 | 1268.2 | 2.86
293.15 K, x1 = 0.8711 | 780.52 | 1276.9 | 3.25
293.15 K, x1 = 1 | – | – | 3.71
303.15 K, x1 = 0.0772 | 741.82 | 1173 | 1.2
303.15 K, x1 = 0.1584 | 745.73 | 1180.9 | 1.3
303.15 K, x1 = 0.2439 | 749.65 | 1188.4 | 1.42
303.15 K, x1 = 0.334 | 753.6 | 1196.6 | 1.55
303.15 K, x1 = 0.4293 | 757.69 | 1205 | 1.71
303.15 K, x1 = 0.5302 | 761.62 | 1213.3 | 1.88
303.15 K, x1 = 0.6371 | 765.59 | 1221.9 | 2.08
303.15 K, x1 = 0.7506 | 769.74 | 1230.8 | 2.31
303.15 K, x1 = 0.8711 | 773.76 | 1239.6 | 2.59
303.15 K, x1 = 1 | – | – | 2.93
313.15 K, x1 = 0.0772 | 734.56 | 1135 | 1.02
313.15 K, x1 = 0.1584 | 738.53 | 1143 | 1.1
313.15 K, x1 = 0.2439 | 742.51 | 1150.7 | 1.2
313.15 K, x1 = 0.334 | 746.52 | 1159 | 1.3
313.15 K, x1 = 0.4293 | 750.67 | 1167.6 | 1.43
313.15 K, x1 = 0.5302 | 754.66 | 1176.1 | 1.56
313.15 K, x1 = 0.6371 | 758.69 | 1184.8 | 1.72
313.15 K, x1 = 0.7506 | 762.9 | 1193.9 | 1.9
313.15 K, x1 = 0.8711 | 766.98 | 1202.8 | 2.12
313.15 K, x1 = 1 | – | – | 2.37
323.15 K, x1 = 0.0772 | 727.27 | 1097.7 | 0.882
323.15 K, x1 = 0.1584 | 731.3 | 1105.9 | 0.947
323.15 K, x1 = 0.2439 | 735.34 | 1113.7 | 1.03
323.15 K, x1 = 0.334 | 739.41 | 1122.2 | 1.11
323.15 K, x1 = 0.4293 | 743.63 | 1131 | 1.21
323.15 K, x1 = 0.5302 | 747.69 | 1139.7 | 1.32
323.15 K, x1 = 0.6371 | 751.78 | 1148.5 | 1.44
323.15 K, x1 = 0.7506 | 756.05 | 1157.7 | 1.59
323.15 K, x1 = 0.8711 | 760.19 | 1166.8 | 1.76
323.15 K, x1 = 1 | – | – | 1.95
333.15 K, x1 = 0.0772 | 719.94 | 1061.1 | 0.768
333.15 K, x1 = 0.1584 | 724.04 | 1069.5 | 0.822
333.15 K, x1 = 0.2439 | 728.14 | 1077.5 | 0.889
333.15 K, x1 = 0.334 | 732.28 | 1086.1 | 0.956
333.15 K, x1 = 0.4293 | 736.56 | 1095.1 | 1.04
333.15 K, x1 = 0.5302 | 740.68 | 1103.9 | 1.13
333.15 K, x1 = 0.6371 | 744.84 | 1112.9 | 1.23
333.15 K, x1 = 0.7506 | 749.18 | 1122.3 | 1.34
333.15 K, x1 = 0.8711 | 753.38 | 1131.6 | 1.48
333.15 K, x1 = 1 | – | – | 1.64
343.15 K, x1 = 0.0772 | 712.57 | 1025.2 | 0.676
343.15 K, x1 = 0.1584 | 716.73 | 1033.7 | 0.721
343.15 K, x1 = 0.2439 | 720.9 | 1041.9 | 0.778
343.15 K, x1 = 0.334 | 725.11 | 1050.7 | 0.834
343.15 K, x1 = 0.4293 | 729.46 | 1059.8 | 0.906
343.15 K, x1 = 0.5302 | 733.65 | 1068.8 | 0.975
343.15 K, x1 = 0.6371 | 737.87 | 1077.9 | 1.06
343.15 K, x1 = 0.7506 | 742.28 | 1087.5 | 1.15
343.15 K, x1 = 0.8711 | 746.55 | 1096.9 | 1.26
343.15 K, x1 = 1 | – | – | 1.39
353.15 K, x1 = 0.0772 | 705 | – | 0.6
353.15 K, x1 = 0.1584 | 709.3 | – | 0.638
353.15 K, x1 = 0.2439 | 713.4 | – | 0.687
353.15 K, x1 = 0.334 | 717.7 | – | 0.734
353.15 K, x1 = 0.4293 | 722.1 | – | 0.794
353.15 K, x1 = 0.5302 | 726.4 | – | 0.852
353.15 K, x1 = 0.6371 | 730.8 | – | 0.923
353.15 K, x1 = 0.7506 | 735.1 | – | 0.998
353.15 K, x1 = 0.8711 | 739.5 | – | 1.09
353.15 K, x1 = 1 | – | – | 1.19
363.15 K, x1 = 0.0772 | 697.5 | – | 0.538
363.15 K, x1 = 0.1584 | 701.8 | – | 0.57
363.15 K, x1 = 0.2439 | 706.1 | – | 0.613
363.15 K, x1 = 0.334 | 710.4 | – | 0.653
363.15 K, x1 = 0.4293 | 714.8 | – | 0.704
363.15 K, x1 = 0.5302 | 719.2 | – | 0.753
363.15 K, x1 = 0.6371 | 723.7 | – | 0.813
363.15 K, x1 = 0.7506 | 728.1 | – | 0.88
363.15 K, x1 = 0.8711 | 732.5 | – | 0.954
363.15 K, x1 = 1 | – | – | 1.04
373.15 K, x1 = 0.0772 | 689.9 | – | 0.487
373.15 K, x1 = 0.1584 | 694.2 | – | 0.515
373.15 K, x1 = 0.2439 | 698.6 | – | 0.553
373.15 K, x1 = 0.334 | 703.1 | – | 0.586
373.15 K, x1 = 0.4293 | 707.5 | – | 0.63
373.15 K, x1 = 0.5302 | 712.1 | – | 0.673
373.15 K, x1 = 0.6371 | 716.7 | – | 0.723
373.15 K, x1 = 0.7506 | 721.1 | – | 0.78
373.15 K, x1 = 0.8711 | 725.6 | – | 0.841
373.15 K, x1 = 1 | – | – | 0.913
